Drawing on patent publication US9199988B2, “Dihydroquinazolinone analogues” (Boehringer Ingelheim International GmbH, priority 2013, dated 2015), this text covers IC50 for 19 compounds.

A word on the IC50: it is the concentration at which inhibition is half-maximal. Read a low IC50 as inhibition by little substance.

The assay deals with T1, first (BRD4-BD1) or the second (BRD4-BD2) bromodomain of BRD4 (Homo sapiens, UniProt O60885).
T1 construct: fused on or other part: GST tag (N-terminal fusion, used for capture on the glutathione acceptor beads)
The assay can be described thus: BRD4-H4 tetraacetylated peptide inhibition AlphaScreen. In kind it is binding. The following applies: inhibition of interaction of GST-BRD4 bromodomain with biotinylated tetraacetylated histone H4 peptide; table does not say whether BD1 or BD2. The procedure: BRD4-H4 tetraacetylated peptide inhibition AlphaScreen
Compounds are diluted in serial dilution 1:5 in assay buffer from 10 mM stock in DMSO (100 μM start concentration) in white OptiPlate-384 (PerkinElmer). A mix consisting of 15 nM GST-BRD4-BD1 protein (aa 44-168) or 150 nM GST-BRD4-BD2 (aa 333-460) and 15 nM biotinylated Acetyl-Histone H4 (LysS, 8, 12, 16) peptide is prepared in assay buffer (50 mM HEPES pH=7.4; 25 mM NaCl; 0.05% Tween 20; 0.1% bovine serum albumin (BSA); 10 mM dithiothreitol (DTT)). 6 μl of the mix is added to the compound dilutions. Subsequently, 6 μl of premixed AlphaLISA Glutathione Acceptor Beads and AlphaScreen Streptavidin Donor Beads from PerkinElmer (in assay buffer at a concentration of 10 μg/ml each) are added and the samples are incubated for 30 min at RT in the dark (shaking 300 rpm). Afterwards, the signal is measured in a PerkinElmer Envision HTS Multilabel Reader using the AlphaScreen protocol from PerkinElmer. Each plate contains negative controls where biotinylated Acetyl-Histone H4 peptide and GST-BRD4-BD1 or GST-BRD4-BD2 are left out and replaced by assay buffer. Negative control values are entered as low basis value when using the software GraphPad Prism for calculations. Furthermore, a positive control (probe molecule JQ1+ with protein/peptide mix) is pipetted. Determination of IC50 values are carried out using GraphPad Prism 3.03 software (or updates thereof).
Background: Bead proximity is the source of the signal in Alpha formats.

Molecules are shown by their SMILES.

Compound `Cc1noc(C)c1-c1ccc2c(c1)C(c1ccccc1)N(C)C(=O)N2` (stereo not shown) [Example 1, 6-(3,5-Dimethyl-isoxazol-4-yl)-3-methyl-4-phenyl-3,4-dihydro-1H-quinazolin-2-one] had an IC50 of 44 nM.

As for `Cc1noc(C)c1-c1ccc2c(c1)[C@H](c1ccccc1)N(C)C(=O)N2` [Example 2, (S) 6-(3,5-Dimethyl-isoxazol-4-yl)-3-methyl-4-phenyl-3,4-dihydro-1H-quinazolin-2-one], the midpoint of inhibition, the IC50, lay at 27 nM. This IC50 lies about 1.6-fold lower than the previous one.

In the case of `Cc1noc(C)c1-c1ccc2c(c1)C(c1ccccc1)N(C)C(=O)N2C` (stereo not shown) [Example 3, 6-(3,5-Dimethyl-isoxazol-4-yl)-1,3-dimethyl-4-phenyl-3,4-dihydro-1H-quinazolin-2-one], 66 nM corresponded to half-maximal inhibition (IC50).

`Cc1noc(C)c1-c1ccc2c(c1)C(c1ccccc1)N(CC1CCN(C)CC1)C(=O)N2` (stereo not shown) [Example 4, 6-(3,5-Dimethyl-isoxazol-4-yl)-3-(1-methyl-piperidin-4-ylmethyl)-4-phenyl-3,4-dihydro-1H-quinazolin-2-one] registered an IC50 of 31 nM.

The compound `Cc1noc(C)c1-c1ccc2c(c1)C(c1ccccc1)N(CC1CCOCC1)C(=O)N2` (stereo not shown) [Example 5, 6-(3,5-Dimethylisoxazol-4-yl)-4-phenyl-3-(tetrahydropyran-4-ylmethyl)-1,4-dihydroquinazolin-2-one] yielded an IC50 of 38 nM.

For the compound `Cc1noc(C)c1-c1ccc2c(c1)C(c1ccccc1)N(Cc1ccccc1)C(=O)N2` (stereo not shown) [Example 6, 3-Benzyl-6-(3,5-dimethylisoxazol-4-yl)-4-phenyl-1,4-dihydroquinazolin-2-one], half-maximal inhibition (IC50) was put at 225 nM.

The compound `Cc1noc(C)c1-c1ccc2c(c1)C(c1ccc(Cl)cc1)N(C)C(=O)N2` (stereo not shown) [Example 7, 4-(4-Chloro-phenyl)-6-(3,5-dimethyl-isoxazol-4-yl)-3-methyl-3,4-dihydro-1H-quinazolin-2-one] came in with an IC50 of 105 nM.

In turn, `Cc1noc(C)c1-c1ccc2c(c1)C(c1ccccc1)N(C)C(=O)O2` (stereo not shown) [Example 8, 6-(3,5-Dimethyl-isoxazol-4-yl)-3-methyl-4-phenyl-3,4-dihydro-benzo[e][1,3]oxazin-2-one] had an IC50 of 75 nM.

`Cc1noc(C)c1-c1ccc2c(c1)[C@H](c1ccccc1)N(C)C(=O)O2` [Example 9, (S) 6-(3,5-Dimethyl-isoxazol-4-yl)-3-methyl-4-phenyl-3,4-dihydro-benzo[e][1,3]oxazin-2-one] gave an IC50 of 68 nM.

Take `Cc1noc(C)c1-c1ccc2c(c1)C(c1ccccc1)OC(=O)N2` (stereo not shown) [Example 10, 6-(3,5-Dimethyl-isoxazol-4-yl)-4-phenyl-1,4-dihydro-benzo[d][1,3]oxazin-2-one]: inhibition was half-maximal at 423 nM (IC50). Against the preceding compound, the IC50 is about 6.2-fold higher.

In the case of `COc1ccc(CN2C(=O)Oc3ccc(-c4c(C)noc4C)cc3C2c2ccccc2)cc1` (stereo not shown) [Example 12, 6-(3,5-Dimethyl-isoxazol-4-yl)-3-(4-methoxy-benzyl)-4-phenyl-3,4-dihydro-benzo[e][1,3]oxazin-2-one], the IC50 came out at 241 nM.

On to `Cc1noc(C)c1-c1ccc2c(c1)C(c1ccccn1)N(C)C(=O)N2` (stereo not shown) [Example 13, 6-(3,5-Dimethyl-isoxazol-4-yl)-3-methyl-4-pyridin-2-yl-3,4-dihydro-1H-quinazolin-2-one], for which half-maximal inhibition (IC50) required 119 nM.

In turn, `Cc1noc(C)c1-c1cc2c(cn1)NC(=O)N(C)C2c1ccccc1` (stereo not shown) [Example 15, 6-(3,5-Dimethyl-isoxazol-4-yl)-3-methyl-4-phenyl-3,4-dihydro-1H-pyrido[3,4-d]pyrimidin-2-one] came in with an IC50 of 837 nM. This IC50 lies about 7-fold higher than the previous one.

`Cc1noc(C)c1-c1cc2c(cn1)NC(=O)N(C)[C@H]2c1ccccc1` [Example 16, (S) 6-(3,5-Dimethyl-isoxazol-4-yl)-3-methyl-4-phenyl-3,4-dihydro-1H-pyrido[3,4-d]pyrimidin-2-one] displayed an IC50 of 166 nM.

`Cc1noc(C)c1-c1ccc2c(n1)C(c1ccccc1)N(C)C(=O)N2` (stereo not shown) [Example 17, 6-(3,5-Dimethyl-isoxazol-4-yl)-3-methyl-4-phenyl-3,4-dihydro-1H-pyrido[3,2-d]pyrimidin-2-one] had an IC50 of 252 nM. Against the preceding compound, the IC50 is about 1.5-fold higher.

In the case of `Cc1noc(C)c1-c1cnc2c(c1)C(c1ccccc1)N(C)C(=O)N2` (stereo not shown) [Example 18, 6-(3,5-Dimethyl-isoxazol-4-yl)-3-methyl-4-phenyl-3,4-dihydro-1H-pyrido[2,3-]pyrimidin-2-one], the IC50 was found to be 76 nM. Compared with the last compound, the IC50 is about 3.3-fold lower.

Compound `Cc1noc(C)c1-c1ccc2c(c1)C(C)(c1ccccc1)N(C)C(=O)N2` (stereo not shown) [Example 19, 6-(3,5-Dimethyl-isoxazol-4-yl)-3,4-dimethyl-4-phenyl-3,4-dihydro-1H-quinazolin-2-one] registered an IC50 of 31 nM. This IC50 lies about 2.5-fold lower than the previous one.

On to `COc1noc(C)c1-c1ccc2c(c1)C(c1ccccc1)N(C)C(=O)N2` (stereo not shown) [Example 20, 6-(3-Methoxy-5-methyl-isoxazol-4-yl)-3-methyl-4-phenyl-3,4-dihydro-1H-quinazolin-2-one], for which the IC50 was 213 nM.

In the case of `COc1c(-c2c(C)noc2C)ccc2c1C(c1ccccc1)N(C)C(=O)N2` (stereo not shown) [Example 21, 6-(3,5-Dimethyl-isoxazol-4-yl)-5-methoxy-3-methyl-4-phenyl-3,4-dihydro-1H-quinazolin-2-one], the IC50 was determined as 825 nM.
